Entries after “also recorded” stand apart in the source; their conditions may differ. Like-named read-outs stand apart in the source and are kept apart here.
Key:
type 2 5α-reductase = target: T1, type 2 5α-reductase (Homo sapiens, UniProt P31213); assay: Progress curves of DHT formation, slow-binding inhibition of baculovirus-expressed type 2 5α-reductase; format: biochemical
T1 construct: made in house
T1 sequence (P31213 1-254): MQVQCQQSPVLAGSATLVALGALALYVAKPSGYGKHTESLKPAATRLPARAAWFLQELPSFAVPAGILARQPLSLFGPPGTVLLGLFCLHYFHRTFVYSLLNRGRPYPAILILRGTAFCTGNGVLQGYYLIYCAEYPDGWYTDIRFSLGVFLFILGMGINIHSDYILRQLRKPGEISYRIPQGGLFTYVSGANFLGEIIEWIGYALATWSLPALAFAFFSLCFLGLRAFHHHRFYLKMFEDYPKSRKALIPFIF
Method: Ethanol is included at 1% final concentration as the vehicle for introduction of inhibitors. The rate of production of [^3 H]dihydrotestosterone is approximately constant for up to 2 hours or 10% consumption of substrate. A unit of enzyme activity was defined as 1 pmol product/min, and is equal to 444 fmol enzyme under these conditions.
After quenching the reactions with an equal volume, or more, of water containing 1% trifluoroacetic acid, the [^3 H]dihydrotestosterone is isolated by direct injection onto a reverse phase C-18 column (Vydac, 4.6×250 mm, 300 Å, 5 micron), which is run in an isocratic system of 40% water (containing 0.1% trifluoroacetic acid) and 60% methanol at 1 mL/min. When tissue extracts are the source of enzyme, the quenched reactions are clarified by centrifugation at 10,000×g before analysis. Retention times are ~13 min for testosterone and ~20 min for dihydrotestosterone. The effluent containing the [^3 H]dihydrotestosterone peak (6 mL) is collected in a liquid scintillation vial and counted with AQUASOL 2 (14 mL, New England Nuclear) with an efficiency of 0.309. The assay is completely automated using a SUN SPARKSTATION 2 computer interfaced to a ZYMARK robot and ancillary equipment.
The native human enzyme was from prostate (type 2) or scalp (type 1) tissue, and the recombinant human enzymes were produced by the baculovirus expression system of Andersson, et al. (Chan, H. K., Geissler, W. M., Andersson, S., Sex Hormones and Antihormones in Endocrine Dependent Pathology: Basic and Clinical Aspects, M. Motta and M. Serio, eds., Elsevier Science 1994). […] Enzyme concentrations were determined by titration with finasteride, or [^3 H]finasteride, or from catalytic activity using kcat and Km values.
Alternatively, fractions may be collected and the samples counted on a scintillation counter. […] The time courses were fit to an integrated first-order rate equation (Equation 1), where A is product concentration, vo is the initial velocity, vs is the infinite-time velocity, and kobs is the first-order rate constant for progression of the enzyme between the two equilibrium states. […] (Ki=koff /kon).
A=vs t+(vo -vs)(1-e-^k obs^t)/kobs +Ao Equation

type 1 5α-reductase = assay: Kinetic constants of type 1 5α-reductase; format: biochemical, human
Text: (§1) Ethanol is included at 1% final concentration as the vehicle for introduction of inhibitors. […] A unit of enzyme activity was defined as 1 pmol product/min, and is equal to 444 fmol enzyme under these conditions.
(§2) The molecular weight was taken to be about 30,000 in estimating enzyme purity.

[1] = tested on: human prostate (type 2) 5α-reductase; conditions: result in words, cited from earlier work
[2] = tested on: human prostate (type 2) isozyme; conditions: cited from earlier work
[3] = tested on: human skin (type 1) isozyme; conditions: cited from earlier work
[4] = tested on: dihydrotestosterone levels; conditions: circulating finasteride concentrations comparable to Ki = 26 nM; result in words; cited from earlier work
[5] = substrate: C[C@]12CC[C@H]3[C@@H](CCC4=CC(=O)CC[C@@]43C)[C@@H]1CC[C@@H]2O; assay: purified protein, by the assay type; conditions: other: baculovirus-expressed type 2 enzyme, pH 7.2, 37° C.
Text: as §1, §2

CCN(CC)C(=O)[C@H]1CC[C@H]2[C@@H]3CC[C@H]4OC(=O)C=C[C@]4(C)[C@H]3CC[C@]12C [L-682,299, 17β-(N-diethyl)carbamoyl-4-oxa-5α-androst-1-en-3-one]
Ki (type 2 5α-reductase): < 0.1 nM | velocity at infinite-time (vs) (type 2 5α-reductase; 20 nM inhibitor, pH 7.2, 37° C.): essentially zero | inhibition over time (type 2 5α-reductase; 20 nM inhibitor, pH 7.2, 37° C., result in words): the inhibition developed slowly with time and resulted in total inhibition of the enzyme | kon at 0.02 µM (type 2 5α-reductase; pH 7.2, read-out: second-order rate constant for binding to the type 2 isozyme): 56000 M⁻¹ s⁻¹

C[C@]12CC[C@H]3[C@@H](CCC4=CC(=O)CC[C@@]43C)[C@@H]1CC[C@@H]2O [testosterone]
Km (type 1 5α-reductase): 7 µM | kcat for the type 1 enzyme (type 1 5α-reductase): 1.4 s⁻¹

CC(C)(C)NC(=O)[C@H]1CC[C@H]2[C@@H]3CC[C@H]4NC(=O)C=C[C@]4(C)[C@H]3CC[C@]12C [Finasteride, 17β-(N-tert-butylcarbamoyl)-3-oxo-4-aza-5α-androst-1-ene-3-one]
inhibition of human prostate (type 2) enzyme [1]: potent inhibitor of the human prostate enzyme | inhibition of human prostate (type 2) enzyme ([1]; listed as finasteride): potently inhibited by finasteride | rate constant for binding to the human prostate isozyme ([2]; Faller et al. 1993): 270000 M⁻¹ s⁻¹ | binding behavior / reversibility ([2]; human prostate (type 2) isozyme, result in words): slow-binding inhibitors; also recorded: essentially irreversible enzyme-inhibitor complex | Ki ([2]; printed as Ki <<1 nM, essentially irreversible complex, Faller et al. 1993): < 1 nM | inhibition of human skin (type 1) isozyme ([3]; result in words, listed as finasteride): relatively insensitive to finasteride; also recorded: not a significant inhibitor of human skin (type 1) isozyme at doses employed in the treatment of BPH | second-order rate constant for formation of the complex ([3]; type 1, Tian et al. 1994): 4000 M⁻¹ s⁻¹ | reduction of dihydrotestosterone levels [4]: reduced levels of dihydrotestosterone to values approaching those found in individuals genetically deficient in the prostate isozyme

B1: type 2 5α-reductase (Homo sapiens) (protein)
chain: T1 sequence (P31213 1-254)
Km [5]: 0.0246 ± 0.0007 µM | kcat [5]: 0.075 ± 0.006 s⁻¹ | kcat/Km [5]: 2.99±0.32×10^6 M^-1 s^-1

— patent US5756480A, “Treatment of hyperandrogenic conditions” (Merck & Co., Inc., priority 1996, dated 1998)
